{"source": "patent US20170136008A1", "about": "“OXABICYCLOHEPTANES AND OXABICYCLOHEPTENES FOR THE TREATMENT OF OVARIAN CANCER” (priority 2014, published 2017)", "key": {"[1]": {"test_system": "PEO1-STOP (PEO-1s) ovarian cancer cell line", "test": "MTT cytotoxicity assay, PEO1-STOP", "assay_type": "cell-based, human", "details": "Homo sapiens, read-out: IC50, viability of ovarian cancer cell line", "experimental": "SKOV-3 ovarian cancer cells were purchased from American Type Culture Collection (ATCC) (Manassas, Va.). SKOV-3 cells were cultured in McCoy's 5A medium (ATCC, Manassas, Va.) supplemented with 10% fetal bovine serum and 100 units/mL penicillin G sodium, 100 ug/mL streptomycin sulfate, and 292 μg/ml, L-glutamine (BioWhittaker, Wakersville, Md.). Luciferase-expressing cells were generated by infecting SKOV-3 cells with pCLNCX-luciferase retrovirus (SKOV-3-Luc) as previously reported (Wei, B. R. et al. 2009). Human OVCAR-8 ovarian cancer cells were provided by the National Cancer Institute (part of the NCI-60 collection). The PEO1, PEO4, and PEO6 ovarian cancer cell lines have previously been characterized (Langdon, S. P. et al. 1988) and were kindly provided by Dr. Ian Goldlust (National Center for Advancing Translational Sciences, Shady Grove, Md.). […]\nCell survival was measured by the 3-(4,5-dimethylthiazol-2-yl)-2,5-diphenyltetrazolium bromide (MTT, Invitrogen) assay. […] Absorbance values were determined at […] on a Spectra Max 250 spectrophotometer (Molecular Devices, Sunnyvale, Calif.). […] Cell viability was analyzed via the MTT assay as described above. […]"}, "[2]": {"biological_target": "T1, PP2A (Homo sapiens, UniProt P67775)", "T1 construct": "endogenous in cells; host or cells: SKOV-3 ovarian cancer cells (lysate supernatant, assayed with the Millipore PP2A Phosphatase Assay Kit)", "T1 sequence (P67775 whole entry)": "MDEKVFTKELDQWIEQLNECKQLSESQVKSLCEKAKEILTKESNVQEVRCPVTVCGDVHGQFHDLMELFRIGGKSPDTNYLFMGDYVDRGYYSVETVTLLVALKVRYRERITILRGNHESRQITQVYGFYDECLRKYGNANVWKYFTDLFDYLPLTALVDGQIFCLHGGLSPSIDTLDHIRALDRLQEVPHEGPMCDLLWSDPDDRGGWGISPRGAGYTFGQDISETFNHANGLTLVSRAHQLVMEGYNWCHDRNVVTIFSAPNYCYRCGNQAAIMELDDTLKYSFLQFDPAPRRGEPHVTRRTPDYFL", "T1 sequence (P30153 2-589 partner limits assumed)": "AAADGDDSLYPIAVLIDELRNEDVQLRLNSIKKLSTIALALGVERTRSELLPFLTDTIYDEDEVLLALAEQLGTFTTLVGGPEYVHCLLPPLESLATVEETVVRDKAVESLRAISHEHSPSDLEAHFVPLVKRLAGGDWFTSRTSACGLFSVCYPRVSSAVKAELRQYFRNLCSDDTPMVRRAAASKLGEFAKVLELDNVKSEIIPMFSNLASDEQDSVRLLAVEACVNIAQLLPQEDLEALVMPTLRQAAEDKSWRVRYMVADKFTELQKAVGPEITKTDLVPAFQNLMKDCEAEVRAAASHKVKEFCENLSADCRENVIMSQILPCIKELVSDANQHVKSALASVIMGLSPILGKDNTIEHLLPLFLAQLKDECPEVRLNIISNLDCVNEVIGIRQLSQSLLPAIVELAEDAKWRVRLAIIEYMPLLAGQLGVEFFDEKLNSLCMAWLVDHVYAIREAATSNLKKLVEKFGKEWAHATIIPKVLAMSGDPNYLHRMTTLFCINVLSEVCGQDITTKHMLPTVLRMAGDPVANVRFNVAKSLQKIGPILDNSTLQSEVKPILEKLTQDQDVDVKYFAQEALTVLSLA", "test": "PP2A phosphatase activity assay", "assay_type": "cell-based", "details": "cell lysate from SKOV-3 cells, 2 h treatment", "experimental": "Ovarian cancer cells were grown to 80% confluence in 100 mm dishes and treated with LB100 as indicated and prepared as described previously (Wei, D. et al. 2013). Following treatment for 2 h, cells were washed twice with cold PBS (pH7.4) and lysed in lysis buffer (20 mmol/L imidazole-HCL, 2 mmol/L EDTA, 2 mmol/L EGTA, pH 7.0) supplemented with protease inhibitors (Roche) for 30 minutes on ice. Cell lysates were sonicated for 10 s then centrifuged at 2,000×g for 5 min. Supernatants were assayed with the PP2A Phosphatase Assay Kit (Millipore, Billerica, Mass.) according to the manufacturer's instructions. Experiments were performed in triplicate, and the data are presented as a percent mean of relative PP2A activity compared to control ±SD."}, "[3]": {"test_system": "p-Chk1 (S345) and apoptosis proteins in OVCAR-8 cells", "test": "Immunoblotting, OVCAR-8 cells", "assay_type": "cell-based, human", "details": "after 1 h cisplatin, recovery up to 8 h, vs media alone", "experimental": "Whole cell and homogenized tumor tissues were lysed in NP-40 lysis buffer [50 mM Tris/HCl, pH 7.4, 150 mM NaCl and 1% Nonidet P40, supplemented with Complete Protrase Inhibitor Cocktail tablets and PhosStop phosphatase inhibitors (Roche, Indianapolis, Ind.)] and prepared as previously described (Madigan, J. P. et al. 2009). Protein (40 μg) was resolved on SDS/PAGE (12% or 15% gels) and transferred onto Immobilon PVDF membrane. The membrane was then blocked for 1 hour at room temperature in 5% (w/v) non-fat milk in TBS-Tween and probed overnight with primary antibodies. After extensive washing, cells were probed with anti-rabbit or anti-mouse IgG-horseradish per oxidase (HRP)-conjugated secondary antibodies (Cell Signaling Technology, Danvers, Mass.) in blocking buffer for 1 h. Membranes were subsequently incubated in Immobilon Western blot Chemiluminescent HRP Substrate (Millipore) and developed on biomax XAR film (Kodak). Antibodies were purchased from Cell Signaling Technology: γH2AX (Ser139), p-Wee1 (Ser 642), Wee1, p-cdc2 (Tyr15), p-BRCA1 (Ser1524), p-Chk1 (Ser345), p-Chk1 (Ser317), Chk-1, phospho-Chk2 (Thr68), PP2Ac, cleaved caspase-3 (Asp175), cleaved PARP (Asp214), p-histone H3 (Ser10), p-ATR (Ser428), and p-(Ser)14-3-3 binding motif. […]"}}, "data": [{"smiles": "CN1CCN(C(=O)C2C(C(=O)O)[C@H]3CC[C@@H]2O3)CC1", "note": "(stereo partly drawn) [LB100]", "values": [{"measurement": "IC50", "setting": "[1]", "value": "6.9 ± 1", "unit": "µM"}, {"measurement": "PP2A enzymatic function", "setting": "[2]", "value": "concentration-dependent decrease"}, {"measurement": "phosphorylation of Chk1 at S345", "setting": "[3]", "value": "significantly increased"}]}]}
